Earlier results as cited in PMC9074375 (The journal of physical chemistry. B, 2022).

Tested on: malignant cells

## FLGVLALLGYLAVRPFLPKKKQQK [NAF-1^44-67]
Malignant versus normal cells
  permeation of the plasma membrane: selectively permeates the plasma membrane of malignant but not normal cells
Peptide alone, without therapeutic cargo
  killing of cancer cells: kill cancer cells by itself, without carrying additional therapeutic cargo and without damaging normal cells
